Laboratory results as given in patent US20110245496A1, “Quinazoline Salt Compounds” (priority 2007, published 2011).
Values joined by “and” are separate entries in the source; they are usually repeats but may differ in a detail not shown here. Equal values may be shown once.

Assays:
[1] = Salt solubility measurement in water; conditions: for solubility / Solubility as free base / Solubility as salt: water, stirred at ambient temperature 18-20 hours, filtered, hplc assay; for solubility: thermodynamic from solid; for pH of the remaining solution: remaining solution after solubility measurement in water
[2] = tested on: gastric tumor (N87) cell line; assay: Methylene blue growth inhibition assay, N87; assay type: cell-based; conditions: Homo sapiens, 72 h, N87 cells, 3 days
Description: (§1) Human breast (BT474), head and neck (HN5) and gastric tumor (N87) cell lines and human foreskin Fibroblasts (HFF) were cultured in low glucose DMEM (Life Technologies 12320-032) containing 10% fetal bovine serum (FBS) at 37° C. in a humidified 10% CO2, 90% air incubator. The SV40 transformed human mammary epithelial cell line HB4a was transfected with either human H-ras cDNA (HB4a r4.2) or the human c-erbB2 cDNA (HB4a c5.2). The HB4a clones were cultured in RPMI containing 10% FBS, insulin ([…]), hydrocortisone ([…]), supplemented with the selection agent hygromycin B (50 μg/ml). Cells were harvested using trypsin/EDTA, counted using a haemocytometer, and plated in […] of the appropriate media, at the following densities, in a 96-well tissue culture plate (Falcon 3075): BT474 10,000 cells/well, HN5 3,000 cells/well, N87 10,000 cells/well, HB4a c5.2 3,000 cells/well, HB4a r4.2 3,000 cells/well, HFF 2500 cells/well. The next day, compounds were diluted in DMEM containing […] gentamicin, at twice the final required concentration, from 10 mM stock solutions in DMSO. […] of these dilutions were added to the […] of media currently on the cell plates. Medium containing 0.6% DMSO was added to control wells. […] Optical density at 620 nm was measured on a microplate reader. Percent inhibition of cell growth was calculated relative to vehicle treated control wells. […]

breast (BT474) cell line = assay: Methylene blue growth inhibition assay, BT474; assay type: cell-based; conditions: Homo sapiens, BT-474, 72 h, BT474 cells, 3 days
Description: as §1

[3] = tested on: head and neck (HN5) cell line; assay: Methylene blue growth inhibition assay, HN5; assay type: cell-based; conditions: Homo sapiens, 72 h, HN5 cells, 3 days
Description: as §1

CS(=O)(=O)CCNCc1ccc(-c2ccc3ncnc(Nc4ccc(OCc5cccc(F)c5)c(Cl)c4)c3c2)o1.C[C@H](O)C(=O)O.C[C@H](O)C(=O)O [Di-L-lactate, N-{3-Chloro-4-[(3-fluorobenzyl)oxy]phenyl}-6-[5-({[2-(methanesulphonyl)ethyl]amino}methyl)-2-furyl]-4-quinazolinamine di-L-lactate]
solubility ([1]; Solubility as free base): > 10300 µg/mL
solubility ([1]; Solubility as salt): > 13500 µg/mL

CS(=O)(=O)CCNCc1ccc(-c2ccc3ncnc(Nc4ccc(OCc5cccc(F)c5)c(Cl)c4)c3c2)o1.O=C(O)c1ccccc1.O=C(O)c1ccccc1 [Dibenzoate, N-{3-Chloro-4-[(3-fluorobenzyl)oxy]phenyl}-6-[5-({[2-(methanesulphonyl)ethyl]amino}methyl)-2-furyl]-4-quinazolinamine dibenzoate]
solubility ([1]; Solubility as free base): 40 µg/mL
solubility ([1]; Solubility as salt): 60 µg/mL

CS(=O)(=O)CCNCc1ccc(-c2ccc3ncnc(Nc4ccc(OCc5cccc(F)c5)c(Cl)c4)c3c2)o1.O=S(=O)(O)c1ccccc1.O=S(=O)(O)c1ccccc1 [Dibesylate, N-{3-Chloro-4-[(3-fluorobenzyl)oxy]phenyl}-6-[5-({[2-(methanesulphonyl)ethyl]amino}methyl)-2-furyl]-4-quinazolinamine dibesylate]
Solubility as free base [1]: <LoD

CCS(=O)(=O)O.CCS(=O)(=O)O.CS(=O)(=O)CCNCc1ccc(-c2ccc3ncnc(Nc4ccc(OCc5cccc(F)c5)c(Cl)c4)c3c2)o1 [Diesylate, N-{3-Chloro-4-[(3-fluorobenzyl)oxy]phenyl}-6-[5-({[2-(methanesulphonyl)ethyl]amino}methyl)-2-furyl]-4-quinazolinamine diesylate]
solubility ([1]; Solubility as free base): ~19700 µg/mL
solubility ([1]; Solubility as salt): ~27200 µg/mL

CS(=O)(=O)CCNCc1ccc(-c2ccc3ncnc(Nc4ccc(OCc5cccc(F)c5)c(Cl)c4)c3c2)o1.O.O=C(O)/C=C\C(=O)O.O=C(O)/C=C\C(=O)O [Dimaleate monohydrate, N-{3-Chloro-4-[(3-fluorobenzyl)oxy]phenyl}-6-[5-({[2-(methanesulphonyl)ethyl]amino}methyl)-2-furyl]-4-quinazolinamine dimaleate monohydrate]
solubility ([1]; Solubility as free base): 40 µg/mL
solubility ([1]; Solubility as salt): 60 µg/mL

CS(=O)(=O)CCNCc1ccc(-c2ccc3ncnc(Nc4ccc(OCc5cccc(F)c5)c(Cl)c4)c3c2)o1.O=C(O)/C=C\C(=O)O.O=C(O)/C=C\C(=O)O [Dimaleate, N-{3-Chloro-4-[(3-fluorobenzyl)oxy]phenyl}-6-[5-({[2-(methanesulphonyl)ethyl]amino}methyl)-2-furyl]-4-quinazolinamine dimaleate]
Solubility as free base ([1]; dimaleate): 0.15 mg/mL and 0.14 mg/mL
Solubility as salt ([1]; dimaleate): 0.20 mg/mL and 0.19 mg/mL
solubility ([1]; Solubility as free base): 130 µg/mL
solubility ([1]; Solubility as salt): 180 µg/mL

CS(=O)(=O)CCNCc1ccc(-c2ccc3ncnc(Nc4ccc(OCc5cccc(F)c5)c(Cl)c4)c3c2)o1.CS(=O)(=O)O.CS(=O)(=O)O.O.O [Dimesylate dehydrate, N-{3-Chloro-4-[(3-fluorobenzyl)oxy]phenyl}-6-[5-({[2-(methanesulphonyl)ethyl]amino}methyl)-2-furyl]-4-quinazolinamine dimesylate dihydrate]
solubility ([1]; Solubility as free base): ~15300 µg/mL
solubility ([1]; Solubility as salt): ~21300 µg/mL

CS(=O)(=O)CCNCc1ccc(-c2ccc3ncnc(Nc4ccc(OCc5cccc(F)c5)c(Cl)c4)c3c2)o1.CS(=O)(=O)O.CS(=O)(=O)O.O [Dimesylate monohydrate, N-{3-Chloro-4-[(3-fluorobenzyl)oxy]phenyl}-6-[5-({[2-(methanesulphonyl)ethyl]amino}methyl)-2-furyl]-4-quinazolinamine dimesylate monohydrate]
Solubility as free base ([1]; dimesylate monohydrate): 1) ~4.70 mg/ml
Solubility as salt ([1]; dimesylate monohydrate): 1) 6.25 mg/ml
solubility ([1]; Solubility as free base): ~4360 µg/mL
solubility ([1]; Solubility as salt): 5800 µg/mL

CS(=O)(=O)CCNCc1ccc(-c2ccc3ncnc(Nc4ccc(OCc5cccc(F)c5)c(Cl)c4)c3c2)o1.CS(=O)(=O)O.CS(=O)(=O)O [Dimesylate, N-{3-Chloro-4-[(3-fluorobenzyl)oxy]phenyl}-6-[5-({[2-(methanesulphonyl)ethyl]amino}methyl)-2-furyl]-4-quinazolinamine dimesylate]
solubility ([1]; Solubility as free base): > 7350 µg/mL
solubility ([1]; Solubility as salt): > 10000 µg/mL

CS(=O)(=O)CCNCc1ccc(-c2ccc3ncnc(Nc4ccc(OCc5cccc(F)c5)c(Cl)c4)c3c2)o1 [GW572016X, N-{3-Chloro-4-[(3-fluorobenzyl)oxy]phenyl}-6-[5-({[2-(methanesulphonyl)ethyl]amino}methyl)-2-furyl]-4-quinazolinamine]
IC50 [2]: < 5 µM
IC50 (breast (BT474) cell line): < 5 µM
IC50 [3]: < 5 µM

CS(=O)(=O)CCNCc1ccc(-c2ccc3ncnc(Nc4ccc(OCc5cccc(F)c5)c(Cl)c4)c3c2)o1.O=C(O)C[C@H](O)C(=O)O [Mono L-malate, N-{3-Chloro-4-[(3-fluorobenzyl)oxy]phenyl}-6-[5-({[2-(methanesulphonyl)ethyl]amino}methyl)-2-furyl]-4-quinazolinamine mono-L-malate]
Solubility as salt ([1]; mono-L-malate): 0.07 mg/mL
solubility ([1]; Solubility as free base): 50 µg/mL
solubility ([1]; Solubility as salt): 60 µg/mL

CS(=O)(=O)CCNCc1ccc(-c2ccc3ncnc(Nc4ccc(OCc5cccc(F)c5)c(Cl)c4)c3c2)o1.C[C@H](O)C(=O)O [Mono-L-lactate, N-{3-Chloro-4-[(3-fluorobenzyl)oxy]phenyl}-6-[5-({[2-(methanesulphonyl)ethyl]amino}methyl)-2-furyl]-4-quinazolinamine mono-L-lactate]
Solubility as salt [1]: 2) 7.9 mg/ml
solubility ([1]; Solubility as free base): ~7300 µg/mL
solubility ([1]; Solubility as salt): 8500 µg/mL

CS(=O)(=O)CCNCc1ccc(-c2ccc3ncnc(Nc4ccc(OCc5cccc(F)c5)c(Cl)c4)c3c2)o1.O=C(O)CC(O)(CC(=O)O)C(=O)O [Monocitrate, N-{3-Chloro-4-[(3-fluorobenzyl)oxy]phenyl}-6-[5-({[2-(methanesulphonyl)ethyl]amino}methyl)-2-furyl]-4-quinazolinamine monocitrate]
solubility ([1]; Solubility as free base): 10 µg/mL
solubility ([1]; Solubility as salt): 10 µg/mL

CCS(=O)(=O)O.CS(=O)(=O)CCNCc1ccc(-c2ccc3ncnc(Nc4ccc(OCc5cccc(F)c5)c(Cl)c4)c3c2)o1 [Monoesylate, N-{3-Chloro-4-[(3-fluorobenzyl)oxy]phenyl}-6-[5-({[2-(methanesulphonyl)ethyl]amino}methyl)-2-furyl]-4-quinazolinamine monoesylate]
Solubility as free base [1]: 0.53 mg/mL
Solubility as salt [1]: 0.63 mg/mL
solubility ([1]; Solubility as free base): 520 µg/mL
solubility ([1]; Solubility as salt): 620 µg/mL

CS(=O)(=O)CCNCc1ccc(-c2ccc3ncnc(Nc4ccc(OCc5cccc(F)c5)c(Cl)c4)c3c2)o1.CS(=O)(=O)O [Monomesylate, N-{3-Chloro-4-[(3-fluorobenzyl)oxy]phenyl}-6-[5-({[2-(methanesulphonyl)ethyl]amino}methyl)-2-furyl]-4-quinazolinamine monomesylate]
solubility ([1]; Solubility as free base): 330 µg/mL
solubility ([1]; Solubility as salt): 390 µg/mL

CS(=O)(=O)CCNCc1ccc(-c2ccc3ncnc(Nc4ccc(OCc5cccc(F)c5)c(Cl)c4)c3c2)o1.O=C(O)CCC(=O)O [Succinate, N-{3-Chloro-4-[(3-fluorobenzyl)oxy]phenyl}-6-[5-({[2-(methanesulphonyl)ethyl]amino}methyl)-2-furyl]-4-quinazolinamine monosuccinate]
Solubility as free base [1]: <LoD
Solubility as salt [1]: <LoD

Lapatinib Di-L-Malate
pH of the remaining solution [1]: 3.2
Solubility as free base [1]: 0.91 mg/mL
Solubility as salt [1]: 1.33 mg/mL

Lapatinib Difumarate
pH of the remaining solution [1]: 3.0
Solubility as free base [1]: <LoD

Lapatinib Monofumarate
pH of the remaining solution [1]: 4.0
Solubility as free base [1]: <LoD
